Legend:
Interstitial collagenase = molecular target: T1, Interstitial collagenase (Homo sapiens, UniProt P03956); test: (§1) Activity Assay: Stock solution of substrate (Mca-Lys-Pro-Leu-Gly-Leu-Dpa-Ala-Arg-NH2) was prepared in DMSO at a concentration of 6 mM. Assays were performed in an assay buffer (50 mM Tris pH 7.5, 300 mM NaCl, 10 uM ZnSO4, 5 mM CaCl2, 0.005% Brij-35). The final DMSO concentration in all assays was 1.0%. […] The assays were carried out at 37° C. The fluorescence changes, resulting from the substrate cleavage, were detected using excitation at 340 nm and emission wavelength of 405 nm using a Wallac 1420 Microplate Reader. The reaction mixtures were preincubated with the inhibitors for 30 minutes. The reactions were started by the addition of MMP substrate, and the fluorescence intensity changes were measured after 60 minutes. The obtained fluorescence values were normalized and % inhibition values calculated. Dose response curves were determined from 6 concentration points using three fold dilution steps, each concentration point was determined in dupllicate. IC50 values were calculated from the dose response curves.
T1 sequence (P03956 whole entry): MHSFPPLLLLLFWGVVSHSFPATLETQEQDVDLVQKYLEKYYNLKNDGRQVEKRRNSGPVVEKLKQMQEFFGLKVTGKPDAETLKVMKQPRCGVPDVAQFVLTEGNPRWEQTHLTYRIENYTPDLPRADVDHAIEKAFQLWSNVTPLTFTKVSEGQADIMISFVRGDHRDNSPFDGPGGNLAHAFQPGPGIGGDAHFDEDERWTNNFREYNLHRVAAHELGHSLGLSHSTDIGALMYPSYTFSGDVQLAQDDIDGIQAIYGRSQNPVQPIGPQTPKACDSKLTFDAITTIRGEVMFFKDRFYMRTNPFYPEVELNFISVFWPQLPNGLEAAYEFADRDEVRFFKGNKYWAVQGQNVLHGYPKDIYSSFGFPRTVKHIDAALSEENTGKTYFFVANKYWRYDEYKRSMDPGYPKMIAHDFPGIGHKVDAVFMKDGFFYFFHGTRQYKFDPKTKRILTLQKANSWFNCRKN

[1] = molecular target: 72 kDa type IV collagenase (Homo sapiens, UniProt P08253); test: as §1
72 kDa type IV collagenase, sequence (P08253 whole entry): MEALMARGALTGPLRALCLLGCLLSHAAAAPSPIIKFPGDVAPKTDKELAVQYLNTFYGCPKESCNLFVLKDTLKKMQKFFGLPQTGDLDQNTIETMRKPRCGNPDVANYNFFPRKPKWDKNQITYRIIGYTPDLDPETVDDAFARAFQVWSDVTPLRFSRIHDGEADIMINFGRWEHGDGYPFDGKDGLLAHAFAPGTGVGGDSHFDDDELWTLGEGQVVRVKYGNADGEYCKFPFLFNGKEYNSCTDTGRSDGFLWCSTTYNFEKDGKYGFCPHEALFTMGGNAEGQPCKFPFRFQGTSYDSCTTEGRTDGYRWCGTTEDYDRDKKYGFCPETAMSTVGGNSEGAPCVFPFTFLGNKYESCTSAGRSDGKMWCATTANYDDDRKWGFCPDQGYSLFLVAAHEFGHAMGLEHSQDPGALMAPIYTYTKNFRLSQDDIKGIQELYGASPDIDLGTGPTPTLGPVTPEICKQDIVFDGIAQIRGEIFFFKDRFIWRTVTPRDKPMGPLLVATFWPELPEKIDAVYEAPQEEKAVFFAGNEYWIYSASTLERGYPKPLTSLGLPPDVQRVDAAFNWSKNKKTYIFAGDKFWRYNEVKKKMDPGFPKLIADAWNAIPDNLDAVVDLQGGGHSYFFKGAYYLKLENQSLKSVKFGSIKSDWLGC

[2] = molecular target: Matrix metalloproteinase-9 (Homo sapiens, UniProt P14780); test: as §1
Matrix metalloproteinase-9, sequence (P14780 whole entry): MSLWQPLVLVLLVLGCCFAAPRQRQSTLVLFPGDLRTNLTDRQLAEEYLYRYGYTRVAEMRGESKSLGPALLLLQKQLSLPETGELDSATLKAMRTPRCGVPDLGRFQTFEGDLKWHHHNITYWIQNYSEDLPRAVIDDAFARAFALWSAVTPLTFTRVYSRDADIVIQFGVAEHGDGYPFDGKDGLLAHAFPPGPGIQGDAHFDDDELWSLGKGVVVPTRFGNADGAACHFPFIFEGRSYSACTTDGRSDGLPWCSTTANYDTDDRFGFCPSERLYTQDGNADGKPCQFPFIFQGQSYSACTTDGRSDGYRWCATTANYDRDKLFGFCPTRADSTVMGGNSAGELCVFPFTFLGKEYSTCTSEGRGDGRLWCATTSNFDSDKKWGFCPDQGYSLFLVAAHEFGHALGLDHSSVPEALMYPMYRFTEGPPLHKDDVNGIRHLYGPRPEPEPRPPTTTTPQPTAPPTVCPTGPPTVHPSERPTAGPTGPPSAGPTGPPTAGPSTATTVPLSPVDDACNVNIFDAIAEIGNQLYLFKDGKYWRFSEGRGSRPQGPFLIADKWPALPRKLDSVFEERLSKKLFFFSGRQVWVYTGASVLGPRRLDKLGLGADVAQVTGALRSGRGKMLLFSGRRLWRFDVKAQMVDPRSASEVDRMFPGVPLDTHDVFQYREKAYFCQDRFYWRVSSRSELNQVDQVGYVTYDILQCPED

Collagenase 3 = Collagenase 3 (Homo sapiens, UniProt P45452); test: as §1, with “The fluorescence changes, resulting from the substrate cleavage, were detected using excitation at 340 nm and emission wavelength of 405 nm using a Wallac 1420 Microplate Reader.” left out

CCOC(=O)c1csc(CN(Cc2ccc(F)cc2)Cc2ccc(OCc3ccccc3)cc2)n1
IC50 (Interstitial collagenase): 280 µM
IC50 [1]: > 500 µM
IC50 [2]: 140 µM
IC50 (Collagenase 3): 27 µM

O=C(O)c1csc(CN(Cc2ccc(OCc3ccccc3)cc2)CC(c2ccccc2)c2ccccc2)n1
IC50 [1]: 26 µM
IC50 [2]: 10 µM
IC50 (Collagenase 3): 1.76 µM

Source: ChEMBL document CHEMBL5725232, “Inhibitors of matrix metalloproteinases” (2016)
